# Test results: patent publication US7919493B2, “Anititumoral ecteinascidin derivatives” (Pharma Mar, S.A., priority 2001, dated 2011)
# Legend:
# Format in all cases: cell-based
# [1] = test system: P-388 (suspension culture of a lymphoid neoplasm from DBA/2 mouse); assay: Cytotoxic activity screening, P-388 cells; conditions: three days of incubation, approximate IC50 vs control growth; for IC50: Mus musculus, P388, 72 h
# Protocol: (§1) Cell Cultures. Cells were maintained in logarithmic phase of growth in Eagle's Minimum Essential Medium, with Earle's Balanced Salts, with 2.0 mM L-glutamine, with non-essential amino acids, without sodium bicarbonate (EMEM/neaa); supplemented with 10% Fetal Calf Serum (FCS), 10^−2 M sodium bicarbonate and 0.1 g/l penicillin-G+streptomycin sulfate.
# (§2) A simple screening procedure has been carried out to determine and compare the antitumour activity of these compounds, using an adapted form of the method described by Bergeron et al (1984). The tumour cell line employed have been P-388 (suspension culture of a lymphoid neoplasm from DBA/2 mouse), A-549 (monolayer culture of a human lung carcinoma), HT-29 (monolayer culture of a human colon carcinoma) and MEL-28 (monolayer culture of a human melanoma).
# P-388 cell were seeded into 16 mm wells at 1×10^4 cells per well in 1 ml aliquots of MEM 5FCS containing the indicated concentration of drug. A separate set of cultures without drug was seeded as control growth to ensure that cells remained in exponential phase of growth. All determinations were carried out in duplicate.
# [2] = test system: HT-29 (monolayer culture of a human colon carcinoma); assay: Cytotoxic activity screening, HT-29 cells; conditions: three days of incubation, Crystal Violet; for IC50: Homo sapiens, HT-29, 72 h
# Protocol: as §1
# (§3) A separate set of cultures without drug was seeded as control growth to ensure that cells remained in exponential phase of growth. All determinations were carried out in duplicate. After three days of incubation at 37° C., 10% CO2 in a 98% humid atmosphere, the wells were stained with 0.1% Crystal Violet. An approximately IC50 was determined by comparing the growth in wells with drug to the growth in wells control.
# [3] = test system: A-549 (monolayer culture of a human lung carcinoma); assay: Cytotoxic activity screening, A-549 cells; conditions: three days of incubation, Crystal Violet; for IC50: Homo sapiens, A549, 72 h
# Protocol: as §1, §3
# DU-145 = assay: Cytotoxic activity screening, DU-145 cells; conditions: for IC50: Homo sapiens, DU-145, DU-145 cells; for IC50 DU-145: DU-145 cells
# Protocol: [The source words this procedure for another cell line and reports this cell line under the same test.] as §1, §2
# Examples of biological activities of the compounds described in the present application are in Table IV (IC50 (ng/mL)) on the following pages.
# [4] = test system: MEL-28 (monolayer culture of a human melanoma); assay: Cytotoxic activity screening, MEL-28 cells; conditions: three days of incubation, Crystal Violet; for IC50: Homo sapiens, SK-MEL-28, 72 h
# Protocol: as §1, §2
# as §3, with “A-549, HT-29 and MEL-28 were seeded into 16 mm wells at 2×10^4 cells per well in 1 ml aliquots of MEM 10FCS containing the indicated concentration of drug. A separate” for “A separate”
# HT29 = assay: Cytotoxic assay, sulforhodamine B (SRB), HT29; conditions: Homo sapiens, HT-29; HT29 cells, 48 hours exposure, SRB method
# Source text: (§4) A colorimetric type of assay, using sulforhodamine B (SRB) reaction has been adapted for a quantitative measurement of cell growth and viability (following the technique described by Skehan P et al. J. Natl. Cancer Inst. 1990, 82, 1107-1112).
# (§5) This form of assay employs 96-well cell culture microplates of 9 mm diameter (Faircloth et al. Methods in cell science, 1988, 11(4), 201-205; Mosmann et al, Journal of. Immunological. Methods, 1983, 65(1-2), 55-63). Most of the cell lines are obtained from American Type Culture Collection (ATCC) derived from different human cancer types. Cells are maintained in RPMI 1640 10% FBS, supplemented with 0.1 g/L penicillin and 0.1 g/l streptomycin sulfate and then incubated at 37° C., 5% CO2 and 98% humidity. For the experiments, cells were harvested from subconfluent cultures using trypsin and resuspended in fresh medium before counting and plating.
# (§6) Cells were seeded in 96 well microtiter plates at 5×10^3 cells per well in aliquots of 195 μL medium, and allowed to attach to the plate surface for 18 hours in drug free medium. Afterwards, samples are in aliquots of 5 μL in a ranging from 10 to 10-8 μg/mL dissolved in DMSO/ETOH (0.2% in PS buffer). After 48 hours exposure, the antitumor effect are measured by the SRB method: cells are fixed by adding 50 μL of cold 50% (w/v) trichloroacetic acid and incubating for 60 minutes at 4° C. Plates are washed with deionised water and dried. 100 μL of SRB solution (0.4% w/v in 1% acetic acid) is added to each microtiter well and incubated for 10 minutes at room temperature. Unbound SRB is removed by washing with 1% acetic acid. Plates are air-dried and bound stain is solubilized with Tris Buffer. Optical densities are read on an automated spectrophotometric plate reader at a single wavelength of 490 nm.
# (§7) The values for mean ±SD of data from triplicate wells are calculated. GI50 (concentration that produces 50% growth inhibition) parameter was calculated (NCI algorithm) by automatic interpolation.
# A549 = assay: Cytotoxic assay, sulforhodamine B (SRB), A549; conditions: Homo sapiens; A549 cells, 48 hours exposure, SRB method
# Source text: as §4, §5, §6, §7
# [5] = approximate IC50, listed as 18a*
Structure (SMILES),IC50 [1],IC50 ([2]; approximate IC50),IC50 ([3]; approximate IC50),IC50 (DU-145),IC50 ([4]; approximate IC50),also measured
COc1c(C)cc2c(c1O)[C@@H]1C3[C@@H]4SC[C@H](NC(=O)C(C)NC(=O)/C=C/c5ccccc5)C(=O)OC[C@@H](c5c6c(c(C)c(OC(C)=O)c54)OCO6)N3[C@@H](O)[C@H](C2)N1C (some centres unmarked) [Compound 4x],1 ng/mL,1 ng/mL,1 ng/mL,1 ng/mL,1 ng/mL,–
COC(=O)c1ccccc1C(=O)N[C@H]1CS[C@@H]2c3c(OC(C)=O)c(C)c4c(c3[C@H](COC1=O)N1C2[C@H]2c3c(cc(C)c(OC)c3O)C[C@@H]([C@@H]1C#N)N2C)OCO4 (some centres unmarked) [Compound 6],1 ng/mL,1 ng/mL,1 ng/mL,1 ng/mL,1 ng/mL,–
COc1c(C)cc2c(c1O)[C@@H]1C3[C@@H]4SC[C@H](O)C(=O)OC[C@@H](c5c6c(c(C)c(OC(C)=O)c54)OCO6)N3[C@@H](C#N)[C@H](C2)N1C (some centres unmarked) [Compound 15],5 ng/mL,5 ng/mL,5 ng/mL,5 ng/mL,5 ng/mL,–
COc1c(C)cc2c(c1O)[C@@H]1[C@@H]3[C@@H]4SC[C@H](NC(=O)[C@@H]5CCCN5C(=O)OC(C)(C)C)C(=O)OC[C@@H](c5c6c(c(C)c(OC(C)=O)c54)OCO6)N3[C@@H](C#N)[C@H](C2)N1C [Compound 15b],–,–,–,–,–,GI50 (HT29): 3.66 nM; GI50 (A549): 7.32 nM
COc1c(C)cc2c(c1O)[C@@H]1[C@@H]3[C@@H]4SC[C@H](NC(=O)c5cnn(-c6ccccc6)c5C(F)(F)F)C(=O)OC[C@@H](c5c6c(c(C)c(OC(C)=O)c54)OCO6)N3[C@@H](C#N)[C@H](C2)N1C [Compound 15d],–,–,–,–,–,GI50 (HT29): 10.1 nM; GI50 (A549): 14.6 nM
COc1c(C)cc2c(c1O)[C@@H]1[C@@H]3[C@@H]4SC[C@H](NC(=O)[C@@H]5CCCN5)C(=O)OC[C@@H](c5c6c(c(C)c(OC(C)=O)c54)OCO6)N3[C@@H](C#N)[C@H](C2)N1C [Compound 15f],–,–,–,–,–,GI50 (HT29): 0.278 nM; GI50 (A549): 2.78 nM
COc1c(C)cc2c(c1O)[C@@H]1C3[C@@H]4SC[C@@H](OC(C)=O)C(=O)OC[C@@H](c5c6c(c(C)c(OC(C)=O)c54)OCO6)N3[C@@H](C#N)[C@H](C2)N1C (some centres unmarked) [Compound 17a],–,–,–,–,–,IC50 P-388 [1]: 0.1 ng/mL; IC50 HT-29 ([2]; approximate IC50): 0.1 ng/mL; IC50 A-549 ([3]; approximate IC50): 0.1 ng/mL; IC50 DU-145 (DU-145): 0.1 ng/mL; IC50 MEL-28 ([4]; approximate IC50): 0.1 ng/mL
COc1c(C)cc2c(c1O)[C@@H]1C3[C@@H]4SC[C@H](OC(=O)C(F)(F)F)C(=O)OC[C@@H](c5c6c(c(C)c(OC(C)=O)c54)OCO6)N3[C@@H](C#N)[C@H](C2)N1C (some centres unmarked) [Compound 17b],5 ng/mL,5 ng/mL,5 ng/mL,5 ng/mL,5 ng/mL,–
CCCC(=O)O[C@H]1CS[C@@H]2c3c(OC(C)=O)c(C)c4c(c3[C@H](COC1=O)N1C2[C@H]2c3c(cc(C)c(OC)c3O)C[C@@H]([C@@H]1C#N)N2C)OCO4 (some centres unmarked) [Compound 17c],1 ng/mL,1 ng/mL,1 ng/mL,1 ng/mL,1 ng/mL,–
CCCCCCCC(=O)O[C@H]1CS[C@@H]2c3c(OC(C)=O)c(C)c4c(c3[C@H](COC1=O)N1C2[C@H]2c3c(cc(C)c(OC)c3O)C[C@@H]([C@@H]1C#N)N2C)OCO4 (some centres unmarked) [Compound 17e],1 ng/mL,1 ng/mL,1 ng/mL,1 ng/mL,1 ng/mL,–
CCCCCCCCCCCCCCCC(=O)O[C@H]1CS[C@@H]2c3c(OC(C)=O)c(C)c4c(c3[C@H](COC1=O)N1C2[C@H]2c3c(cc(C)c(OC)c3O)C[C@@H]([C@@H]1C#N)N2C)OCO4 (some centres unmarked) [Compound 17f],> 1000 ng/mL,> 1000 ng/mL,> 1000 ng/mL,> 1000 ng/mL,> 1000 ng/mL,–
COc1c(C)cc2c(c1O)[C@@H]1C3[C@@H]4SC[C@H](OC(=O)/C=C/c5ccccc5)C(=O)OC[C@@H](c5c6c(c(C)c(OC(C)=O)c54)OCO6)N3[C@@H](C#N)[C@H](C2)N1C (some centres unmarked) [Compound 17h],0.1 ng/mL,0.1 ng/mL,0.1 ng/mL,0.1 ng/mL,0.1 ng/mL,–
COc1c(C)cc2c(c1O)[C@@H]1C3[C@@H]4SC[C@@H](OC(C)=O)C(=O)OC[C@@H](c5c6c(c(C)c(OC(C)=O)c54)OCO6)N3[C@@H](C#N)[C@H](C2)N1C (some centres unmarked) [Compound 18a*],–,–,–,–,–,"IC50 P-388 ([1]; listed as 18a*): 1.0 ng/mL; IC50 HT-29 [2, 5]: 1.0 ng/mL; IC50 A-549 [3, 5]: 1.0 ng/mL; IC50 DU-145 (DU-145; listed as 18a*): 1.0 ng/mL; IC50 MEL-28 [4, 5]: 1.0 ng/mL"
COc1c(C)cc2c(c1O)[C@@H]1C3[C@@H]4SC[C@H](O)C(=O)OC[C@@H](c5c6c(c(C)c(OC(C)=O)c54)OCO6)N3[C@@H](O)[C@H](C2)N1C (some centres unmarked) [Compound 19],1 ng/mL,1 ng/mL,1 ng/mL,1 ng/mL,1 ng/mL,–
COc1c(C)cc2c(c1O)[C@@H]1C3[C@@H]4SC[C@@H](OC(C)=O)C(=O)OC[C@@H](c5c6c(c(C)c(OC(C)=O)c54)OCO6)N3[C@@H](O)[C@H](C2)N1C (some centres unmarked) [Compound 21a],0.5 ng/mL,1 ng/mL,1 ng/mL,1 ng/mL,1 ng/mL,–
CCCC(=O)O[C@H]1CS[C@@H]2c3c(OC(C)=O)c(C)c4c(c3[C@H](COC1=O)N1C2[C@H]2c3c(cc(C)c(OC)c3O)C[C@@H]([C@@H]1O)N2C)OCO4 (some centres unmarked) [Compound 21c],1 ng/mL,1 ng/mL,1 ng/mL,1 ng/mL,1 ng/mL,–
CCCCCCCC(=O)O[C@H]1CS[C@@H]2c3c(OC(C)=O)c(C)c4c(c3[C@H](COC1=O)N1C2[C@H]2c3c(cc(C)c(OC)c3O)C[C@@H]([C@@H]1O)N2C)OCO4 (some centres unmarked) [Compound 21e],1 ng/mL,1 ng/mL,1 ng/mL,1 ng/mL,1 ng/mL,–
COc1c(C)cc2c(c1O)[C@@H]1C3[C@@H]4SC[C@H](OC(=O)/C=C/c5ccccc5)C(=O)OC[C@@H](c5c6c(c(C)c(OC(C)=O)c54)OCO6)N3[C@@H](O)[C@H](C2)N1C (some centres unmarked) [Compound 21h],1 ng/mL,1 ng/mL,1 ng/mL,1 ng/mL,1 ng/mL,–
COc1c(C)cc2c(c1O)[C@@H]1C3[C@@H]4SC[C@H](OS(C)(=O)=O)C(=O)OC[C@@H](c5c6c(c(C)c(OC(C)=O)c54)OCO6)N3[C@@H](O)[C@H](C2)N1C (some centres unmarked) [Compound 21ll],1 ng/mL,1 ng/mL,1 ng/mL,1 ng/mL,1 ng/mL,–
